{"source": "patent US12370197B2", "about": "“Combination product of a Bcl-2/Bcl-xL inhibitor and a chemotherapeutic agent and use thereof in the prevention and/or treatment of diseases” (ASCENTAGE PHARMA (SUZHOU) CO., LTD., priority 2019, dated 2025)", "key": {"[1]": {"tested_on": "MV-4-11 AML xenograft", "test": "human MV-4-11 AML xenograft model in mice", "assay_type": "in vivo, mouse", "conditions": "for mRECIST: MV-4-11 xenograft, animals with response / animals in group; for RTV (D22) (Mean ± SEM) / T/C (%) (D22): female BALB/c Nude mice, s.c. MV-4-11, Compound 6 or ABT-199 50 mg/kg oral once daily 21 days, HHT 1 mg/kg i.p. once daily 14 days, day 22", "protocol": "Treatment was initiated on the day of grouping (Day 1). […] HHT was intraperitoneally administered once daily for consecutive 14 days. The tumor sizes (caliper) and animal body weights were measured twice a week."}, "[2]": {"tested_on": "SKM-1 cells", "test": "CellTiter-Glo luminometric cell viability assay (CTG), SKM-1", "assay_type": "cell-based", "protocol": "(§1) In the antiproliferative tests, cells were plated in 96-well plates (Corning, Cat. 3903) at 10000 cells/well/cell line. In the apoptosis assay, cells were plated in 24-well plates (Corning, Cat. 3524) at 200000 cells/well/cell line.\n(§2) For combination tests, the results were further analyzed using the CalcuSyn program to calculate a Combination Index (CI) (Chou, T. C. (2010) “Drug combination studies and their synergy quantification using the Chou-Talalay method.”, Cancer Res 70(2): 440-446). […]\n(§3) The anti-proliferation effects of the test sample in three AML/MDS cell lines, namely MV-4-11 (Compound 6 sensitive cell line), OCI-AML-3 (Compound 6 non-sensitive cell line) and SKM-1 (Compound 6 non-sensitive cell line), were determined by quantifying ATP using CellTiter-Glo luminescence cell viability detection kits, according to the manufacturer's instructions.\n(§4) First, cells in the logarithmic growth phase were collected, centrifuged, and the cell suspension was counted and diluted/adjusted to the desired concentration. […] More than 3 blank control wells containing only medium (100 μL/well) without cells were set on the same plate to obtain background luminescence, and cell control wells, i.e., wells containing cells but treated with vehicle control, were set. […]\n(§5) Luminescence signals were detected using a Biotek synergy H1 microplate reader. […]"}, "[3]": {"tested_on": "MV-4-11 cells", "test": "CellTiter-Glo luminometric cell viability assay (CTG), MV-4-11", "assay_type": "cell-based, human", "protocol": "as §1, §2, §3, §4, §5"}, "[4]": {"tested_on": "OCI-AML-3 cells", "test": "CellTiter-Glo luminometric cell viability assay (CTG), OCI-AML-3", "assay_type": "cell-based, human", "protocol": "as §1, §2, §3, §4, §5"}, "[5]": {"tested_on": "OCI-AML-3 cells", "test": "Annexin V-PI apoptosis flow cytometry, OCI-AML-3", "assay_type": "cell-based, human", "conditions": "24 h, Compound 6 10 nM, HHT 30 nM, alone or combined", "protocol": "as §1\n[Experimental Methods]: Flow Cytometer Analysis\nCells were harvested after 24 hours of treatment with Compound 6 alone, HHT alone, or the combination of both, and washed once with phosphate buffered saline (PBS). Cells were stained with Annexin-V and PI and analyzed using an Attune NxT flow cytometer. Apoptosis profiles were obtained by analyzing 20000 cells per experimental condition.\nApoptosis was detected using Annexin V-PI (propidium iodide) staining kit according to the manufacturer's instructions. After treating the cells MV-4-11, OCI-AML-3 and SKM-1 with 10 nM Compound 6 alone, 10 nM or 30 nM HHT alone or the combination of both for 24 hours, the cells were harvested and washed once with PBS. Cells were bi-color stained with Annenix V-FITC and PI. After staining was complete, analysis was performed using an Attune NxT flow cytometer. Apoptosis profiles were obtained by analyzing 20000 cells per experimental condition."}, "[6]": {"tested_on": "OCI-AML-3 AML xenograft", "test": "human OCI-AML-3 AML xenograft model in mice", "assay_type": "in vivo, mouse", "conditions": "female NOD SCID mice, s.c. OCI-AML-3; Compound 6 50 mg/kg oral once daily 14 days; HHT 0.75 mg/kg i.p. once daily 7 days from D2; day 15", "protocol": "Treatment was initiated on the grouping day (D1). […] HHT was intraperitoneally injected once daily from D2 and continued for consecutive 7 days. The tumor sizes (caliper) and animal body weights were measured twice a week."}, "[7]": {"tested_on": "MCL-1", "test": "Western Blot assay, MCL-1", "assay_type": "cell-based, human", "conditions": "MV-4-11, OCI-AML-3 and SKM-1 cells, 4 h; 10 nM Compound 6, 10 nM or 30 nM HHT", "protocol": "[Experimental Methods]: Western Blot Assay\nWestern Blot assay was performed after 4 hours treatment of cells in logarithmic growth phase with Compound 6, HHT, either alone or in combination.\nAfter 4 hours of interaction with 10 nM Compound 6 in combination with 10 nM or 30 nM HHT, cells were harvested and washed once with pre-cooled PBS. The cell pellets were lysed using RIPA lysate containing 1% PMSF and 1% protease inhibitor. The protein concentration was detected by using a BCA protein concentration detection kit. Cell lysates (20-50 μg) were separated by 4-20% SDS-PAGE. The separated proteins were transferred to PVDF membranes which were blocked using 1% BSA (bovine serum albumin) buffer at room temperature for 1 hours before incubated in a shaker at 4° C. overnight with primary antibody diluted in 1×TBST (Tris-Buffered Saline Tween-20) containing 1% BSA. The membranes were washed 3 times with 1×TBST each for 10 minutes, and then were incubated for 1 hour at room temperature using horseradish peroxidase (HRP)-tagged secondary antibodies (goat anti-rabbit-HRP (Yeasen, Cat. #33101ES60) and goat anti-mouse-HRP (Yeasen, Cat. #33201ES60), diluted according to the manufacturer's instructions). The membranes were washed 3 times with 1×TBST each for 10 minutes. HRP substrate was added onto the PVDF membrane. […]"}}, "note": "Values joined by “and” are separate entries in the source; they are usually repeats but may differ in a detail not shown here. Identical values can stand only once. “Also recorded” adds a separate entry of the source.", "data": [{"smiles": "CC1(C)CCC(CN2CCN(c3ccc(C(=O)NS(=O)(=O)c4ccc(NCC5CCOCC5)c([N+](=O)[O-])c4)c(Oc4cnc5[nH]ccc5c4)c3)CC2)=C(c2ccc(Cl)cc2)C1", "note": "[ABT-199]", "values": [{"measurement": "mRECIST", "setting": "[1]", "value": "no CR or PR and 6/6 PD"}, {"measurement": "RTV (D22) (Mean ± SEM)", "setting": "[1]", "value": "11.77 ± 1.94"}, {"measurement": "T/C (%) (D22)", "setting": "[1]", "value": 88.27, "unit": "%"}]}, {"smiles": "O=C(NS(=O)(=O)c1ccc(NC[C@H]2COCCO2)c([N+](=O)[O-])c1)c1ccc(N2CCN(CC3=C(c4ccc(Cl)cc4)CC4(CCC4)CC3)CC2)cc1Oc1cnc2[nH]ccc2c1", "note": "[Compound 6, (S)-N-((4-(((1,4-dioxan-2-yl)methyl)amino)-3-nitrophenyl)sulfonyl)-2-((1H-pyrrolo[2,3-b]pyridin-5-yl)oxy)-4-(4-((6-(4-chlorophenyl)spiro[3.5]non-6-en-7-yl)methyl)piperazin-1-yl)benzamide]", "values": [{"measurement": "sensitivity of the cell line to Compound 6", "setting": "[2]", "value": "non-sensitive"}, {"measurement": "sensitivity of the cell line to Compound 6", "setting": "[3]", "value": "sensitive; also recorded: moderate sensitivity"}, {"measurement": "sensitivity of the cell line to Compound 6", "setting": "[4]", "value": "non-sensitive"}, {"measurement": "apoptosis (Annexin V+ cells)", "setting": "[5]", "value": 12.1, "unit": "%"}, {"measurement": "mRECIST", "setting": "[1]", "value": "no CR or PR and 6/6 PD"}, {"measurement": "RTV (D22) (Mean ± SEM)", "setting": "[1]", "value": "8.36 ± 0.76"}, {"measurement": "T/C (%) (D22)", "setting": "[1]", "value": 62.76, "unit": "%"}, {"measurement": "RTV(D15) (Mean ± SEM)", "setting": "[6]", "value": "12.77 ± 1.51"}, {"measurement": "T/C (%) (D15)", "setting": "[6]", "value": 61.36, "unit": "%"}]}, {"smiles": "COC(=O)C[C@](O)(CCCC(C)(C)O)C(=O)O[C@@H]1C(OC)=C[C@]23CCCN2CCc2cc4c(cc2[C@H]13)OCO4", "note": "[HHT, homoharringtonine]", "values": [{"measurement": "expression level of anti-apoptosis protein MCL-1", "setting": "[7]", "value": "reduce the expression level"}, {"measurement": "apoptosis (Annexin V+ cells)", "setting": "[5]", "value": 25.0, "unit": "%"}, {"measurement": "mRECIST", "setting": "[1]", "value": "3/5 SD and 3/5 SD, 2/5 PD"}, {"measurement": "RTV (D22) (Mean ± SEM)", "setting": "[1]", "value": "4.32 ± 1.42"}, {"measurement": "T/C (%) (D22)", "setting": "[1]", "value": 32.43, "unit": "%"}, {"measurement": "RTV(D15) (Mean ± SEM)", "setting": "[6]", "value": "13.89 ± 0.82"}, {"measurement": "T/C (%) (D15)", "setting": "[6]", "value": 66.77, "unit": "%"}]}]}
